In patent publication US20070105928A1, “6-Pentafluorophenyl-triazolopyrimidines, method for their production and their use for combating pathogenic fungi, in addition to agents containing said substances” (priority 2003, published 2007):

What was measured:
Botrytis cinerea = test: Activity against gray mold on bell pepper leaves caused by Botrytis cinerea, protective application; format: in vivo; settings: 63 ppm, bell pepper seedlings cultivar Neusiedler Ideal Elite, protective spray, assessed after 5 days; untreated plants 90% infected
Description: The active compounds were prepared as a stock solution with 0.25% by weight of active compound in acetone or DMSO. 1% by weight of the emulsifier Uniperol® EL (wetting agent having emulsifying and dispersing action based on ethoxylated alkylphenols) was added to this solution, and the mixture was diluted with water to the desired concentration. Bell pepper seedlings of the cultivar “Neusiedler Ideal Elite” were, after 2 to 3 leaves were well developed, sprayed to runoff point with an aqueous suspension having the concentration of active compound stated below. The next day, the treated plants were inoculated with a spore suspension of Botrytis cinerea which contained 1.7×10^6 spores/ml in a 2% strength aqueous biomalt solution. The test plants were then placed in a dark climatized chamber at 22-24° C. and high atmospheric humidity. After 5 days, the extent of the fungal infection on the leaves could be determined visually in %.

Pyrenophora teres = test: Activity against net blotch of barley caused by Pyrenophora teres, protective application; format: in vivo, Pyrenophora [syn. Drechslera] teres; settings: 250 ppm, barley seedlings cultivar Hanna, protective spray, assessed after 6 days; untreated plants 90% infected
Description: The active compounds were prepared as a stock solution with 0.25% by weight of active compound in acetone or DMSO. 1% by weight of the emulsifier Uniperol® EL (wetting agent having emulsifying and dispersing action based on ethoxylated alkylphenols) was added to this solution, and the mixture was diluted with water to the desired concentration. Leaves of pot-grown barley seedlings of the cultivar “Hanna” were sprayed to run off point with an aqueous suspension having the concentration of active compound stated below. 24 hours after the spray coating had dried on, the test plants were inoculated with an aqueous suspension of Pyrenophora [syn. Drechslera] teres, the causative agent of net blotch. The test plants were subsequently placed in a greenhouse at 20-24° C. and 95-100% relative atmospheric humidity. After 6 days, the extent of development of the disease was determined visually in percent infection of the total leaf area.

## Cc1nc2ncnn2c(N2CCC(C)CC2)c1-c1c(F)c(F)c(F)c(F)c1F [Compound I-3, 5-methyl-6-(pentafluorophenyl)-7-(4-methylpiperidinyl)-1,2,4-triazolo[1,5a]pyrimidine]
Botrytis cinerea
  fungal infection on the leaves: no infection
Pyrenophora teres
  infection of the total leaf area: 5%
